# Assay results: paper PMC12858405, “Ideal efficacy photoswitching for chromocontrol of TRPC4/5 channel functions in live tissues” (Nature Chemical Biology, 2026)
# Biological target: T1, TRPC4β-SYFP2 (Homo sapiens, UniProt Q9UBN4)
# T1 construct: expressed in transfected cells; host or cells: HEK 293 (ATCC CRL 1573), transiently transfected (jetPRIME)
# T1 sequence (Q9UBN4 1-893 isoform Q9UBN4-2): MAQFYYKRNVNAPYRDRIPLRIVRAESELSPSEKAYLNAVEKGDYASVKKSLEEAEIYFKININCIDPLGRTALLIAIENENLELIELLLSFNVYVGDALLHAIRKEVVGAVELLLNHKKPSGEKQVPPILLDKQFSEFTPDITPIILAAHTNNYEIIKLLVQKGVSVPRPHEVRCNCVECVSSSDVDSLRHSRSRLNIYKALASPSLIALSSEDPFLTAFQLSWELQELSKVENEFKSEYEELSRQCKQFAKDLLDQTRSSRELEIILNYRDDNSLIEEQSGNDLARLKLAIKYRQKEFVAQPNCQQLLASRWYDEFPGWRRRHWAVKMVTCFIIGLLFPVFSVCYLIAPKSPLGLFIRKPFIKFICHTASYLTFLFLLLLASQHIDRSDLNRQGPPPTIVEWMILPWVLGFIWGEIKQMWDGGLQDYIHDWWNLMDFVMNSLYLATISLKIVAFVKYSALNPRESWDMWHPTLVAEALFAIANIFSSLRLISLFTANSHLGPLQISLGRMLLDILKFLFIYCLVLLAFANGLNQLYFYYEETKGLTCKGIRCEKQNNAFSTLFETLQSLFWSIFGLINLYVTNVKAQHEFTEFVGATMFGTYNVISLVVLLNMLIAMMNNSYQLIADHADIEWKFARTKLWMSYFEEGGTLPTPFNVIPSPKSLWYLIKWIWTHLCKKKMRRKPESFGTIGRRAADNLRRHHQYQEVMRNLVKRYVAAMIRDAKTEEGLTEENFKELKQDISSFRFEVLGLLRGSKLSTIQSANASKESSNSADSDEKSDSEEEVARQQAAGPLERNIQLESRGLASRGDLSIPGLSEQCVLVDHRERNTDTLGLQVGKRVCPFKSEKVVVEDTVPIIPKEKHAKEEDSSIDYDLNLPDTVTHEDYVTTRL
# Assay: Fura-2 [Ca2+]i recordings, HEK 293 transiently expressing TRPC4β-SYFP2
# Assay type: cell-based
# Conditions: AzHC 10-1000 nM, AM237 100 nM
# Excerpt: Müller, Niemeyer, et al., Schaefer & Thorn-Seshold 2025: Ideal Efficacy Photoswitching of TRPC4/5 in Tissue […]
# 1.4.4 Differences and selectivity between TRPC5 and TRPC4?
# AM237 activates TRPC5 but inhibits EA mediated activation of TRPC4; Pico145 inhibits both TRPC4 and TRPC5. Thus, somewhat naively, it could be argued that it is the para substituent here which affects both the efficacy mode and the selectivity for TRPC4 and/or TRPC5.
# Intriguingly, Z-AzPico activates TRPC4 and TRPC5 with low nanomolar potency whereas Z-AzHC only activates TRPC5 but not TRPC4. Therefore, the meta substituent is now responsible for the selectivity in this case. The cryo-EM structures of Pico145 and HC-070 in complex with TRPC5 indicated the same binding site but the southern phenyl ring bearing the OCF3/Cl group is flipped and pointing in opposite directions.
# Z isomers, i.e. Z-buried vs. E-projected. Additionally, both E-AzPico and E-AzHC inhibit EA […]
# It is not surprising that both ligands bind to either protein because there is a high sequence similarity among the TRPC family in the identified binding pocket for Pico145 /HC-070, and in the binding region, human TRPC4/5 differ only by a single amino acid (TRPC5: V579, TRPC4: I579). We […]
# the result of differences in this residue. […]
# Intracellular calcium ([Ca2+]i) was measured using the ratiometric Ca2+ dye Fura-2. […]
row,SMILES,"Effect on [Ca2+]i, TRPC4"
1,Cn1c(=O)n(CCCO)c(=O)c2c1nc(Oc1ccc(/N=N\c3ccccc3)c(Cl)c1)n2Cc1ccc(Cl)cc1 [Z*-AzHC],do not activate
2,"Cn1c(=O)n(CCCO)c(=O)c2c1nc(Oc1ccc(Cl)c(OC(F)(F)F)c1)n2Cc1ccc(Cl)cc1 [AM237, reference compound]",do not activate
